Data as given in patent publication US20120232062A1, “AZAINDAZOLES TO TREAT FLAVIVIRIDAE VIRUS INFECTION” (EIGER BIOPHARMACEUTICALS, INC., priority 2009, published 2012).
Read-outs that look alike come from different tables or passages of the source.

How the values were obtained:
[1] = Liver microsome stability, rat; type: in vitro ADME, Sprague Dawley rat
Description: (§1) Metabolic stability assays are designed to measure the stability of a test compound in a variety of assay matrices from human and animal species. From a metabolism perspective, a drug would be relatively stable, have a small first-pass effect, and maintain an effective concentration in blood for a reasonable period of time. A microsomal preparation from the liver contains all CYP isozymes and other membrane-bound drug metabolizing enzymes which are responsible for the metabolism for the majority of drugs in humans. Metabolic stability in liver microsomes can determine half-life (T1/2) and intrinsic clearance (Clint). The determination of Clint may be useful to determine whether metabolism is the major elimination pathway when it is compared to total body clearance in vivo. For high metabolic stability in liver microsomes: […] Human, Sprague Dawley rat, and CD-1 mouse liver microsome samples were purchased from BD Gentest. An in vitro metabolic stability assay suitable for use in predicting first pass metabolism of the compounds useful in the methods of the invention is described in this example. […] 6 mM NADPH in 0.1 M K-phosphate buffer is prepared by dissolving 25.1 mg of NADPH tetrasodium salt in 5 mL of K-phosphate buffer. […] The plate is pre-incubated at 37° C. for 10 minutes. 15 μL of NADPH stock solution (6 mM) is added to the wells designated for Time 60 and timed. At 30 min, 15 min, and 5 min, 15 μL of NADPH stock solution (6 mM) is added to the wells. At the end of incubation, 135 μL of ACN containing IS is added to all the wells (60 min, 30 min, 15 min, 5 min and 0 min). Then 15 μL of NADPH stock solution (6 mM) is added to the wells designated as Time 0.

[2] = Liver microsome stability, mouse; type: in vitro ADME, CD-1 mouse
Description: as §1

HCV genotype 1b = test: HCV 1b replicon luciferase assay; type: cell-based
Procedure, shortened: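 Huh7 cells carrying a genotype 1b replicon with stable luciferase reporter, 10k cells/well, were treated 48 h at 37 °C with 10-point 5-fold dilutions from 25 μM (0.1% DMSO), in duplicate. Replication was read as Steady-Glo luminescence.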

[3] = Hepatitis C virus, read-out: 1b replicon EC50, Tables 4, 5 and text of the rat PK section
[4] = read-out: 1b replicon EC50, Tables 4, 5 and the rat PK section
[5] = Hepatitis C virus, Huh-7, 48 h, Table 1, Huh7 HCV 1b replicon, luciferase reporter, 48 hours, read-out: 1b EC50

Row | SMILES | rat liver microsome (RLM), % parent remaining ([1]; after 15 min) [% parent remaining] | rat liver microsome (RLM), % parent remaining ([1]; after 30 min) [% parent remaining] | rat liver microsome (RLM), % parent remaining ([1]; after 60 min) [% parent remaining] | mouse liver microsome (MLM), % parent remaining ([2]; after 15 min) [% parent remaining] | mouse liver microsome (MLM), % parent remaining ([2]; after 30 min) [% parent remaining] | mouse liver microsome (MLM), % parent remaining ([2]; after 60 min) [% parent remaining] | EC50 (HCV genotype 1b; [3]) [nM] | EC50 (HCV genotype 1b; [4]) [nM] | EC50 (HCV genotype 1b; [5]) [nM]
1 | Cn1nc(C(=O)NC2CCN(CCN3CCCCC3)CC2)c2ccc(N3CCCCCC3)nc21 [EBP1047] | 44 | 18 | 10 | 56 | 29 | 12 | 500 to 2000 | 500 | 
2 | CCN1CCC(NC(=O)c2nn(C)c3nc(N4CCCCCC4)ccc23)CC1 [EBP1595] | 67 | 46 | 8 | 67 | 50 | 17 | 500 to 2000 | 1000 | 
3 | Cn1nc(C(=O)NC2CCN(CCN3CCCC3)CC2)c2ccc(N3CCCCCC3)nc21 [EBP1597] | 57 | 24 | 15 | 67 | 32 | 14 | 500 to 2000 | 900 | 
4 | CC(C)N1CCC(NC(=O)c2nn(C)c3nc(N4CCCCCC4)ccc23)CC1 [EBP1604] | 58 | 41 | 14 | 57 | 40 | 14 |  | 2200 | 
5 | Cn1nc(C(=O)NC2CCNCC2)c2ccc(N3CCCCCC3)nc21.O=C(O)C(F)(F)F.O=C(O)C(F)(F)F [compound 697] | 69 | 42 | 13 | 85 | 74 | 44 |  |  | 670
6 | CCC(CC)Oc1ccc2c(C(=O)NC3CCNCC3)n[nH]c2n1 [compound 726] | 83 | 69 | 53 | 99 | 96 | 86 |  |  | 1200
7 | Clc1ccc(Cn2nc(COCCCN3CCCCC3)c3ccc(N4CCCCCC4)nc32)cc1 [compound 749] |  |  |  |  |  |  |  |  | 2000
8 | CCC(CC)Oc1ccc2c(COCC3CCCNC3)nn(Cc3ccc(Cl)cc3)c2n1.O=C(O)C(F)(F)F (stereo not shown) [compound 755] |  |  |  |  |  |  |  |  | 3200
9 | O=C(NC1CCNCC1)c1nn(C(=O)C2CCCCC2)c2nc(N3CCCCCC3)ccc12.O=C(O)C(F)(F)F.O=C(O)C(F)(F)F.O=C(O)C(F)(F)F [compound 989] |  |  |  |  |  |  |  |  | 2600
10 | Cn1nc(C(=O)NC2CCN(CCN3CCCCC3)CC2)c2ccc(N3CCCCCC3)nc21 [compound 1047] | 44 | 18 | 10 | 56 | 29 | 12 |  |  | 520
11 | Cn1nc(C(=O)NC2CCN(CC3CCCCC3)CC2)c2ccc(N3CCCCCCC3)nc21 [compound 1062] |  |  |  |  |  |  |  |  | 356
12 | Cn1nc(C(=O)NC2CCN(CC(F)F)CC2)c2ccc(N3CCCCCC3)nc21 [compound 1110] | 10 | 0.5 | 0.5 | 15 | 1 | 0.4 |  |  | 1800
13 | Cn1nc(CCCN2CCCC2)c2ccc(N3CCCCCCC3)nc21 [compound 1171] | 1.2 | 0.5 | 0.3 | 22 | 3 | 1 |  |  | 1600
14 | Cn1nc(CCCN2CCCCC2CO)c2ccc(N3CCCCCCC3)nc21 (stereo not shown) [compound 1456] | 3.9 | 0.4 | 0.2 | 1.7 | 0.9 | 0.3 |  |  | 1500
15 | CCN1CCC(NC(=O)c2nn(C)c3nc(N4CCCCCC4)ccc23)CC1 [compound 1595] | 67 | 46 | 8 | 67 | 50 | 17 |  |  | 740
16 | Cn1nc(C(=O)NC2CCN(CCN3CCCC3)CC2)c2ccc(N3CCCCCC3)nc21 [compound 1597] | 57 | 25 | 14 | 67 | 32 | 14 |  |  | 770
